Our source for the IC50 values is patent publication US11685747B2, “Compounds that inhibit MCL-1 protein” (AMGEN INC., priority 2014, dated 2023).

The subject of one test is OPM-2. In words: Cell viability assay (OPM-2 10 FBS, CellTiter-Glo). The test is classed as cell-based, human. The note with it: OPM-2 cells. On the technique in general: In ATP-based viability assays light output follows the ATP content of the culture.
The target of test [1] is T1, Mcl-1/Bak protein-protein interactions (Homo sapiens, UniProt Q07820).
T1 construct: expressed in transfected cells; host or cells: HEK 293 M cells, transient transfection
In words: Cell-based split luciferase complementation assay. The note with it: HEK 293 M cells, serum-free, 4 h.

For a further test, the target named is T2, recombinant human Mcl-1 (Homo sapiens, UniProt Q07820).
T2 construct: C-terminally 6×His tagged Mcl-1 containing residues 171-327; made in house
In words: Cell free Mcl-1:Bim affinity assay (Mcl-1 HTRF, TR-FRET). Format: binding. The note with it: inhibition of Mcl-1/Bim interaction. A general note: TR-FRET usually uses a lanthanide donor and a delayed reading to cut background.

T2 sequence (Q07820 171-327): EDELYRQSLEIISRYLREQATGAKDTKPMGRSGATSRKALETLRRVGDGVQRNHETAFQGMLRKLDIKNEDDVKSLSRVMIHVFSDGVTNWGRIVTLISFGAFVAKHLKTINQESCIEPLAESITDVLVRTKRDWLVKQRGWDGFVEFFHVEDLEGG
T1 sequence (Q07820 whole entry): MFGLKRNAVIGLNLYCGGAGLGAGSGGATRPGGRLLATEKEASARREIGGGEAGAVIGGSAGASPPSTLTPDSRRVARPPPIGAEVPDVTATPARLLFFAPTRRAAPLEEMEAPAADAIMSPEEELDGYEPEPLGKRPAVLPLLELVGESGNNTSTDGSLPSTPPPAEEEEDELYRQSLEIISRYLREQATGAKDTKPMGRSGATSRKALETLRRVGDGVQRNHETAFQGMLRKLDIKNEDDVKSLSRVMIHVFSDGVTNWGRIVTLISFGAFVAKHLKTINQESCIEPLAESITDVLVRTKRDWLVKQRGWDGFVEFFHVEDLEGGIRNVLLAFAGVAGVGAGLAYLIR

What is called IC50 is the concentration that inhibits the measured activity by half. Take `C[C@H]1C/C=C/[C@H](O)[C@@H]2CC[C@H]2CN2C[C@@]3(CCCc4cc(Cl)ccc43)COc3ccc(cc32)C(=O)NS(=O)(=O)[C@@H]1C1CC1` (single isomer, unassigned) [Example 47]: the IC50 in the test with OPM-2 (16 h) was found to be 0.284 µM; in test [1] it was 0.06 µM; on recombinant human Mcl-1, 0.000249 µM.
Regarding `CC[C@@H]1CC/C=C/[C@H](OCCOC)[C@@H]2CC[C@H]2CN2C[C@@]3(CCCc4cc(Cl)ccc43)COc3ccc(cc32)C(=O)NS1(=O)=O` [Example 75, (1S,3′R,6′R,7′S,8′E,12′R)-6-Chloro-12′-Ethyl-7′-(2-Methoxyethoxy)-3,4-Dihydro-2H,15′H-Spiro[Naphthalene-1,22′-[20]Oxa[13]Thia[1,14]Diazatetracyclo[14.7.2.0^3,6.0^19,24]Pentacosa[8,16,18,24]Tetraen]-15′-One 13′,13′-Dioxide], the IC50 in the test with OPM-2 (Homo sapiens, OPM-2, 16 h) amounted to 2.56 µM; in test [1], 0.159 µM; at recombinant human Mcl-1 it was 0.00283 µM.
On to `CO[C@H]1CCCC[C@@H](C)S(=O)(=O)NC(=O)c2ccc3c(c2)N(C[C@@H]2CC[C@H]21)C[C@@]1(CCCc2cc(Cl)ccc21)CO3` [Example 16, (1S,3′R,6′R,7′S,12′R)-6-Chloro-7′-Methoxy-12′-Methyl-3,4-Dihydro-2H,15′H-Spiro[Naphthalene-1,22′-[20]Oxa[13]Thia[1,14]Diazatetracyclo[14.7.2.0^3,6.0^19,24]Pentacos A[16,18,24]Trien]-15′-One 13′,13′-Dioxide], for which the IC50 stood at 4.33 µM in the test on OPM-2 (Homo sapiens, OPM-2, 16 h); 0.107 µM in test [1]; 0.00208 µM at recombinant human Mcl-1.
Consider `O=C1NS(=O)(=O)CCCCC[C@H](O)[C@@H]2CC[C@H]2CN2C[C@@]3(CCCc4cc(Cl)ccc43)COc3ccc1cc32` [Example 10, (1S,3′R,6′R,7′S)-6-Chloro-7′-Hydroxy-3,4-Dihydro-2H,15′Hspiro[Naphthalene-1,22′[20]Oxa[13]Thia[1,14]Diazatetracyclo[14.7.2.0^3,6.0^19,24]Penta Cosa[16,18,24]Trien]-15′-One 13′,13′-Dioxide], for which the half-maximal inhibitory concentration (IC50) with OPM-2 (Homo sapiens, OPM-2, 16 h) came out at 9.41 µM; in test [1], 0.232 µM; on recombinant human Mcl-1, 0.00118 µM.
On to `CC(C)[C@@H]1[C@H](C)C/C=C/[C@H](O)[C@@H]2CC[C@H]2CN2C[C@@]3(CCCc4cc(Cl)ccc43)COc3ccc(cc32)C(=O)NS1(=O)=O` (single isomer, unassigned) [Example 52], for which the IC50 came out at 1.11 µM in the test on OPM-2 (16 h), 0.14 µM in test [1] and 0.000882 µM at recombinant human Mcl-1.
As to `CC1(C)CC/C=C\[C@H](O)[C@@H]2CC[C@H]2CN2C[C@@]3(CCCc4cc(Cl)ccc43)COc3ccc(cc32)C(=O)NS1(=O)=O` (single isomer, unassigned) [Example 41], the 50% inhibitory concentration (IC50) in the test with OPM-2 (Homo sapiens, OPM-2, 16 h) worked out at 4.75 µM; in test [1] it was 0.129 µM; on recombinant human Mcl-1 it was 0.00442 µM.
With `C[C@H]1C/C=C/[C@H](O)[C@@H]2CC[C@H]2CN2C[C@@]3(CCCc4cc(Cl)ccc43)COc3ccc(cc32)C(=O)NS(=O)(=O)[C@@H]1CC1CC1` (single isomer, unassigned) [Example 59], the IC50 in the test with OPM-2 (16 h) stood at 0.247 µM; in test [1], 0.0616 µM; at recombinant human Mcl-1, 0.000492 µM.
On to `C[C@H]1C/C=C/[C@H](O)[C@@H]2CC[C@H]2CN2C[C@@]3(CCCc4cc(Cl)ccc43)COc3ccc(cc32)C(=O)NS(=O)(=O)[C@@H]1C1CCC1` (single isomer, unassigned) [Example 56], for which the concentration for half-maximal inhibition (IC50) in the test with OPM-2 (16 h) was determined as 0.208 µM; in test [1], 0.0319 µM; on recombinant human Mcl-1 it was 0.000289 µM.
As to `CC(C)O[C@H]1/C=C/C[C@H](C)[C@@H](C)S(=O)(=O)NC(=O)c2ccc3c(c2)N(C[C@@H]2CC[C@H]21)C[C@@]1(CCCc2cc(Cl)ccc21)CO3` [Example 43, (1S,3′R,6′R,7′S,8′E,11′S,12′R)-6-Chloro-11′,12′-Dimethyl-7′-(1-Methylethoxy)-3,4-Dihydro-2H,15′H-Spiro[Naphthalene-1,22′-[20]Oxa[13]Thia[1,14]Diazatetracyclo[14.7.2.0^3,6.0^19,24]Pentacos A[8,16,18,24]Tetraen]-15′-One-13′,13′-Dioxide], the IC50 came out at 0.901 µM in the test on OPM-2 (Homo sapiens, OPM-2, 16 h); 0.13 µM in test [1]; 0.00175 µM at recombinant human Mcl-1.
